Results on ten molecules are retold here after patent US6900033B2, “Methods and compositions for modulating ACE-2 activity” (Human Genome Sciences, Inc., priority 2001, dated 2005).

“And” between values parts separate entries of the source, which are not always exact repeats. Equal entries are not always repeated. “Also recorded” adds a separate entry of the source. Positions of bridges follow the written chain, without caps; N, C: chain ends.

For experiment [1], the target named is T1, ACE-2 (Homo sapiens, UniProt Q9BYF1).
T1 construct: nucleotides corresponding to the extracellular domain (M1-S740); FLAG; made in house; host or cells: Sf9 insect cells (recombinant baculovirus, transfer vector pA2); purified from conditioned media
T1 sequence (Q9BYF1 18-740): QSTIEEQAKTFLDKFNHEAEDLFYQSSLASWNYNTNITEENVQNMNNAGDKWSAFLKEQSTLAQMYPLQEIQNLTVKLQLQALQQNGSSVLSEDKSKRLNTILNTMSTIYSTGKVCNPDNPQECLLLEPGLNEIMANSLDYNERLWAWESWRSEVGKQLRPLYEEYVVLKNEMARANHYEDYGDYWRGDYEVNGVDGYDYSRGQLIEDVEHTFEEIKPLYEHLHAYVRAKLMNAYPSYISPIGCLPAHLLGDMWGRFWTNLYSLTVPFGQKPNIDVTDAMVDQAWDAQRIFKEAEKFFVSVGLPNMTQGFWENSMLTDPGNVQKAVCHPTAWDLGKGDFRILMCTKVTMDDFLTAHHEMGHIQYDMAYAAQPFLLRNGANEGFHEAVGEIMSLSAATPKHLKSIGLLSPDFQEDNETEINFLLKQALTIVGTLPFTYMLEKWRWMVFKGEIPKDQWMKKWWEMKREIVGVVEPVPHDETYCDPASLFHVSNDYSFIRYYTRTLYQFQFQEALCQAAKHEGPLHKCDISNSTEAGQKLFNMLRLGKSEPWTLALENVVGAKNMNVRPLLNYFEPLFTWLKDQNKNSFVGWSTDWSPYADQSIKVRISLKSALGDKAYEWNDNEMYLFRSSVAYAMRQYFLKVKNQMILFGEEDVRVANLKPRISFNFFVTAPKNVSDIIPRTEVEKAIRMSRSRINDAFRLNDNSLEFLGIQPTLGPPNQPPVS
To be noted: literature (Donoghue 2000; Tipnis 2000); cited from earlier work.

Experiment [2] concerns the target T1, ACE-2. The experiment can be described thus: Fluorometric ACE-2 inhibition assay with peptide M-2195 as substrate. Format: biochemical. To be noted: ACE-2 activity, M-2195 substrate, enzyme pre-incubated 30 minutes with inhibitor, 100 mM TRIS pH 7.4. The procedure: Assay mixture was prepared first by pre-incubating (30 minutes, room temperature) the enzyme with the inhibitor (0.45 μg ([…]) ACE-2, 0-0.5 μM inhibitor rage, up to 90 […] volume with 100 mM TRIS pH 7.4, 0.1% Tween-20, 0.4% DMSO) in each well, in triplicate, by dispensing volumes using a repeat pipetter (Rainin) into a 96-well clear-bottom back plate (Costar, 07-200-590). […] Substrate stock (10 μL of 10× concentration) was added to each well to be tested in blocks of three vertically down the plate. The reaction was monitored on a Spectrafluor Plus (Tecan) at an excitation wavelength of 340 nm and an emission wavelength of 400 nm (+/−35 nm) every 30 seconds for a time period of 10 minutes.
ACE-2 cleaves off the C-terminal lysine from the peptide with a concomitant increase in fluorescence signal.
The assays were performed in 96-well clear-bottom black plates (Costar, 07-200-590). In each well, 0.45 μg (5 pmoles) of ACE-2 is added to 90 μL of an assay solution containing 100 mM TRIS at pH 7.4, 0.1% Tween, and 0.4% DMSO. Substrate stock at 10 μL of 10× concentration is added to each well (for example, 10 μL of 1 mM stock for a final 100 μM concentration). The reaction was monitored on a Spectrafluor Plus (Tecan) at an excitation wavelength of 340 nm and an emission wavelength of 400 nm (+/−35 nm) every 30 seconds up to 10 minutes. All samples were measured in triplicate.

Experiment [3] concerns isolated aortic vascular rings. The experiment can be described thus: Developed isometric tension of isolated rat aortic vascular rings. The note with it: for potentiation of angiotensin II-mediated vasoconstriction: peptide combined with angiotensin II. An excerpt:
The effects of graded doses of A1-9 (Fields et al., Peptide Research 4: 95-101 (1991)) or A1-10 (substrate control) alone or in combination (Tallarida, Drug Synergism and Dose-Effect Data Analysis, Chapman and Hall/CRC, New York (2000), Tallarida et al., Life Science 61: PL417-425 (1997)) with angiotensin II were examined on isolated aortic vascular rings developed tension in response to vasoactive substances. Aortas were removed from mature male Sprague-Dawley rats, cleared of connective tissue, and cut into 1 mm rings. Rings were mounted to an isometric force transducer and placed in Krebs-Henseleit solution bubbled with 95% 02/5% C02 at 37° C. Rings were exposed to a 2 g preload, relaxed and then exposed to various concentrations of angiotensin peptides alone or in combination. Following angiotensin peptide dosing, rings were fully constricted with KCl to determine the maximum degree of vasoconstriction.
The maximum tension developed by A1-9 was minimal and always less than that of angiotensin II.

Another experiment deals with anesthetized dogs. To be noted: literature (Oparil 1971); cited from earlier work.
The subject of another experiment is isolated rat aorta. To be noted: literature (Oparil 1971); cited from earlier work.
The next experiment relates to anesthetized rats. To be noted: literature (Oparil 1971); cited from earlier work.
For experiment [4], the system named is awake, free-ranging Sprague-Dawley rats. The experiment can be described thus: Arterial pressure in awake, free-ranging Sprague-Dawley rats, intravenous infusion. Format: in vivo, rat. As to the method:
To investigate the effects of A1-9 on arterial pressure, A1-9 was administered to awake, free-ranging Sprague-Dawley rats via indwelling intravenous and arterial catheters. Intravenous infusion of A1-9 (1-3 μg/kg/min) in the awake rat produced a dose-dependent tonic increase in mean arterial pressure to a maximum of approximately 30 mmHg (FIG. 2). […] These responses seen with A1-9 were similar in magnitude to those induced by angiotensin II.
To examine any interactions induced by coadministration of A1-9 and angiotensin II, arterial pressure was monitored in the awake rat after they received either A1-9 (1 μg/kg/min) or saline coinfused with angiotensin 11 (1-100 ng/kg/min).

The mark [5] stands for this setting: intravenous infusion 1-3 μg/kg/min, awake rat.

As to `C[C@H](CS)C(=O)N1CCC[C@H]1C(=O)O` [captopril], on ACE-2 [1], the “block of ACE-2 conversion of angiotensin I to angiotensin 1-9” value was “not blocked”.
On to “Ac-AGEGNCFLIGPWCFEFGTEGGG-NH2 (disulfide 6-13 (inferred)) [DX-504]”, for which the Inhibition result with ACE-2 [2] is “−”.
For the molecule “Ac-AGVYFCFDWEQDCDEMGTEGGG-NH2 (disulfide 6-13 (inferred)) [DX-528]”, the Inhibition result in the experiment with ACE-2 [2] was “−”.
On to “Ac-AGWVLCFEWEDCDEKGTEGGG-NH2 (disulfide 6-12 (inferred)) [DX-527]”, for which the Inhibition entry with ACE-2 [2] is recorded as “−”.
For the molecule “Ac-GDDDDCGWIGFANFHLCLHGDPEGGG-NH2 (disulfide 6-17 (inferred)) [DX-510]”, in the experiment with ACE-2 [2], the Inhibition entry is “−”.
For the molecule “Ac-GSDQNCFAMYCFEFAPGEGGG-NH2 (disulfide 6-11 (inferred)) [DX-503]”, in the experiment with ACE-2 [2], the Inhibition entry is listed as “−”.
With “Ac-GSLEMCEALFCVEFAPGEGGG-NH2 (disulfide 6-11 (inferred)) [DX-502]”, the Inhibition result with ACE-2 [2] is “−”.
Same read-out and setting: next, “Ac-GSNDYCTVFTGALFCLDFAPEGGG-NH2 (disulfide 6-15 (inferred)) [DX-507]”: “−”.
“angiotensin I (DRVYIHPFHL; Angiotensin-1; UniProt P01019 25-34, looked up) [substrate control; the ACE and ACE-2 substrate]”: the “potentiation of angiotensin II-mediated vasoconstriction” value in experiment [3] was “failed to potentiate”.
Take “des-Leu^10-angiotensin I (DRVYIHPFH; Angiotensin 1-9; UniProt P01019 25-33, looked up) [A1-9, nonapeptide formed by removal of the C-terminal leucine from angiotensin I]”: the pressor activity entry in the experiment on anesthetized dogs is reported as “weak pressor activity”. Moreover, the “Al-9 % Max. Developed Force” value in experiment [3] (Emax, A1-9 alone, 1-30 nM, mature rat aortic rings, % of KCl maximum, one value per experiment 1-5, listed as Al-9) was 3.5% and 0% and 7.5% and 6.4% and 3.2%. The “potentiation of angiotensin II-mediated vasoconstriction” value in experiment [3] is reported as “synergistic or supraadditive potentiation”. In experiment [3] (rat aortic rings), the “vasoconstrictor activity of the peptide alone” value was “no effect on vascular tone; also recorded: virtually devoid of activity”. For the same molecule, in experiment [3] (shift of angiotensin II dose-effect curve by A1-9, FIG. 1), the “factor of increase of the relative potency of angiotensin II beyond simple additive potentiation” value was 11.6 (95% confidence limits of 3.02-44.7). The vasoconstrictor activity result in the experiment on isolated rat aorta is listed as “weak vasoconstrictor”. Also, the pressor activity result with anesthetized rats is “weak pressor activity”. The “effect on the pressor response to angiotensin II” value in experiment [4] (coinfused with angiotensin II 1-100 ng/kg/min, A1-9 at 1 μg/kg/min) is on record as “potentiated the pressor response elicted by angiotensin II in an additive fashion”. Also, in experiment [4] (setting [5]), the heart rate result is on record as “decreased in a dose-dependent manner”, the “maximum increase in mean arterial pressure” value is reported as “approximately 30 mmHg” and the “pulse pressure (systolic - diastolic)” value is given as “elevated”.
